Entries after “also recorded” stand apart in the source; their conditions may differ.
Key:
[1] = tested on: Escherichia coli strain sensitive to the action of mutagenic substances; assay: DNA-repair test; type: cell-based; details: highest doses, with and without metabolic activation
Protocol: In vitro test, DNA-repair test—The DNA alteration test was conducted with a strain of Escherichia coli sensitive to the action of mutagenic substances. In the study, mitomycin C was used as positive control and penicillin G as negative control.

Wistar rats = assay: Study of fertility and reproductive capacity; type: in vivo, rat
Protocol: Study of fertility and reproductive capacity—The toxicology study of the possible effects of chondroitin on male fertility and female reproductive capacity was conducted on 200 Wistar rats (160 females and 40 males), randomised into four groups, each consisting of 40 females and 10 males, treated with 0, 50, 100 or 200 mg/Kg of chondroitin. Each group of female rats was divided in turn into two sub-groups of 20 animals; the first group received the product daily from the 14th day before the start of the mating period until the 19th day of gestation, and the second received it until the 21st day after the birth. All the males were treated with chondroitin for 60 days before mating and throughout the gestation period of the females. The protocol used follows the guidelines of Directive EEC 85/571.

Sprague Dawley rats = assay: Subacute toxicity study, 30 days; type: in vivo, rat
Protocol: Subacute toxicity study—The study was performed on the rat by administering chondroitin orally (p.o.) and intramuscularly (i.m.). For each of the two studies the animals (Sprague Dawley rats) were divided into 4 groups formed by 15 males and 15 females; chondroitin at the concentration of 50, 100 and 200 mg/Kg respectively was administered to the first 3 groups, and the carrier alone to the fourth group; the administration volume was 10 mL/Kg for p.o. administration and 5 mL/Kg for i.m. administration. Daily administration continued for 30 days. The doses used represent up to 20 times the human therapeutic dose. The general state of health and behaviour of the treated animals were monitored daily, and weight variations, haematological status and urine were evaluated every 5 days. […] At the end of the study all animals were euthanized and an autopsy and histopathological analysis of the main organs (lungs, heart, liver, ovaries, uterus, testicles, kidneys and pituitary gland) were conducted. None of these evaluations indicated any significant differences between the animals treated with chondroitin and the control animals which received the carrier alone.

[2] = tested on: 5 strains of Salmonella typhimurium; assay: Ames' test; type: cell-based; details: up to 2.0 mg/plate, with and without metabolic activation
Protocol: The chondroitin mutagenicity studies were conducted on different mutagenicity and genotoxicity models in vitro and in vivo (Sirtori C., File CONDRAL®, Vol. IV—Reproductive Toxicity and Mutagenesis; Slater E. et al., Rapid detection of mutagens and carcinogens, Cancer Res. 1971, 31: 970-973).
In vitro test, Ames' test—The test was performed with and without metabolic activation on 5 strains of Salmonella typhimurium. Chondroitin was tested at concentrations of between 2.0 μg/plate and 2.0 mg/plate.

rats (Sprague Dawley) = assay: Chronic toxicity study, 26 weeks; type: in vivo; details: rat
Protocol: Chronic toxicity study—This study was conducted on rats (Sprague Dawley) treated daily for 26 weeks with chondroitin administered p.o. (by gavage) at doses ranging from 50 to 200 mg/Kg. The general state of health and behaviour of the treated animals were monitored daily, and weight variations, haematological status and urine were evaluated every 7 days. […] At the end of the study all animals were euthanized and an autopsy and histopathological analysis of the main organs (lungs, heart, liver, ovaries, uterus, testicles, kidneys, pituitary gland, lymph nodes and gastrointestinal tract) were conducted. None of these evaluations indicated any significant differences between the animals treated with chondroitin and the control animals which received the carrier alone.

Substance: chondroitin
- interaction with / alteration of DNA (DNA-repair test) [1]: does not interact and does not alter the DNA; also recorded: Even at higher doses it does not interact and does not alter
- effect on fertility of male rats (Wistar rats; daily oral administration for 60 days, up to 200 mg/Kg): no effect on the fertility of male rats; also recorded: the dose of 200 mg/Kg, has no effect on the fertility of male
- effect on reproductive capacity of females (Wistar rats; daily up to 200 mg/Kg, 15 days before mating to 21st day of lactation): no effect on the reproductive capacity of females; also recorded: no effect on the reproductive capacity of the females
- subacute toxicity, conclusion (Sprague Dawley rats; rat, 50, 100 and 200 mg/Kg p.o. and i.m., 30 days): non-toxic at the doses used
- No toxicity (dose), subacute 30 days (Sprague Dawley rats; rat, p.o. and i.m., daily for 30 days): No toxicity >200 mg/kg/day p.o. and i.m.
- point-reverse mutation (Ames' test) [2]: do not induce a specific point-reverse mutation; also recorded: Up to 2.0 mg/plate: no point-reverse mutation
- chronic toxicity, conclusion (rats (Sprague Dawley); 50 to 200 mg/Kg p.o., 26 weeks): non-toxic at the doses used
- No toxicity (dose), chronic 26 weeks (rats (Sprague Dawley); p.o., daily for 26 weeks): No toxicity >200 mg/kg/day p.o.

— patent publication US10206944B2, “Chondroitin for use in medicine” (ALTERGON S.A., priority 2012, dated 2019)
